In ChEMBL document CHEMBL4706610, “Hydroxypyridinone-Based Iron Chelators with Broad-Ranging Biological Activities” (J Med Chem, 2020):

Columns and labels:
[1] = Ratio of drug level in Sprague-Dawley rat brain to plasma at 5 mg/kg, ip measured after 10 to 180 mins by HPLC-MS analysis; format: ADME, organism-based; details: brain and plasma, time 10-180 min, read-out: BPR
[2] = target: Amyloid-beta precursor protein (Homo sapiens, UniProt P05067); assay: Inhibition of self-induced amyloid beta (1 to 42) (unknown origin) aggregation incubated for 24 hrs by ThT fluorescence assay
Sequence of Amyloid-beta precursor protein (P05067 whole entry): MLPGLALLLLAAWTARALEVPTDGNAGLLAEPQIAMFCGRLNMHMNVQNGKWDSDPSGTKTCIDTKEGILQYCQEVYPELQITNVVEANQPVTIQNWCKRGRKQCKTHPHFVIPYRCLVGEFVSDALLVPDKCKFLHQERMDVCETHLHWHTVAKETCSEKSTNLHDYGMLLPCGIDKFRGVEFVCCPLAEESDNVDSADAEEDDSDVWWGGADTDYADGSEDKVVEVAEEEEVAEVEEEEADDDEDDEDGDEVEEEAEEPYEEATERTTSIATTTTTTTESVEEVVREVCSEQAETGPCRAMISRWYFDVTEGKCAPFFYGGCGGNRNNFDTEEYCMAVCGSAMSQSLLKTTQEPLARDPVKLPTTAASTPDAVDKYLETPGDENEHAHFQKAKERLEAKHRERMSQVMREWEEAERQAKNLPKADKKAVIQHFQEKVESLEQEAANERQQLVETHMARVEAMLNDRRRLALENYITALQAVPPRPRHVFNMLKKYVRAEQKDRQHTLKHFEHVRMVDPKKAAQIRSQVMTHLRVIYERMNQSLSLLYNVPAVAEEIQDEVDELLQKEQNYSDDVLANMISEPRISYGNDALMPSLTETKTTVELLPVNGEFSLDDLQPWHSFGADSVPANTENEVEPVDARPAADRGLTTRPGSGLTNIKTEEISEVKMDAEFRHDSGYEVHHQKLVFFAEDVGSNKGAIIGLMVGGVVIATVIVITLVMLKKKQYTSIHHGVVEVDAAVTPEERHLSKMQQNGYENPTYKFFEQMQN

[3] = AUC (0 to infinity) in Sprague-Dawley rat plasma at 5 mg/kg, ip measured after 10 to 180 mins by HPLC-MS analysis; format: ADME, organism-based; design: route intraperitoneal, time lower 10 min, dose 5 mg/kg, time upper 180 min
[4] = Volume of distribution in Sprague-Dawley rat plasma at 5 mg/kg, ip measured after 10 to 180 mins by HPLC-MS analysis; format: ADME, organism-based; details: in vivo, time 10-180 min
[5] = Cmax in Sprague-Dawley rat brain at 5 mg/kg, ip measured up to 30 mins by HPLC-MS analysis; format: ADME, organism-based; design: route intraperitoneal, dose 5 mg/kg, time <=30
[6] = Half life in Sprague-Dawley rat plasma at 5 mg/kg, ip measured after 10 to 180 mins by HPLC-MS analysis; format: ADME, organism-based; details: time 10-180 min

C#CCN(C)CCCn1ccc(=O)c(O)c1C
Kp [1]: 0.69 | IC50 [2]: 2850 nM | AUC(0-inf) [3]: 636 ng·h/mL | Vd [4]: 18.7 L/kg | Cmax [5]: 207 ng/mL | half-life [6]: 1.6 h
